Measured values taken from ChEMBL document CHEMBL1138108, “Syntheses and evaluation of novel fatty acid-second-generation taxoid conjugates as promising anticancer agents” (Bioorg Med Chem Lett, 2006).
Calls of active or inactive are those of the source. No cut-off for these calls is given here.

Assays:
MCF7R = assay: Cytotoxicity against human mammary tumor cell line MCF7-R; type: functional, cell-based
DLD-1 [1] = assay: Efficacy against Pgp+ human colon tumor xenograft DLD1 in SCID mice at 240 mg/kg, iv; type: functional, organism-based; design: dose 240 mg/kg
MCF7S = assay: Cytotoxicity against human mammary tumor cell line MCF7-S; type: functional, cell-based
DLD-1 [2] = assay: Efficacy against Pgp+ human colon tumor xenograft DLD1 in SCID mice at 75 mg/kg, iv; type: functional, organism-based; design: dose 75 mg/kg
A121 = assay: Efficacy against Pgp- human ovarian tumor xenograft A121 in SCID mice at 90 mg/kg, iv

Structure (SMILES)	IC50 (MCF7R) [nM]	Activity (DLD-1 [1])	IC50 (MCF7S) [nM]	Activity (DLD-1 [2])	Activity (A121)
CCC(=O)O[C@H]1C(=O)[C@@]2(C)[C@H]([C@H](OC(=O)c3ccccc3)[C@]3(O)C[C@H](OC(=O)[C@H](O)[C@H](C=C(C)C)NC(=O)OC(C)(C)C)C(C)=C1C3(C)C)[C@]1(OC(C)=O)CO[C@@H]1C[C@@H]2O	4	Active	0.18		
CC(=O)O[C@H]1C(=O)[C@@]2(C)[C@H]([C@H](OC(=O)c3ccccc3)[C@]3(O)C[C@H](OC(=O)[C@H](O)[C@@H](NC(=O)c4ccccc4)c4ccccc4)C(C)=C1C3(C)C)[C@]1(OC(C)=O)CO[C@@H]1C[C@@H]2O [PACLITAXEL]	550		1.7		
CCCCC/C=C\C/C=C\CCCCCCCC(=O)O[C@@H](C(=O)O[C@H]1C[C@@]2(O)[C@@H](OC(=O)c3ccccc3)C3[C@](C)(C(=O)[C@H](OC(=O)CC)C(=C1C)C2(C)C)[C@@H](O)C[C@H]1OC[C@@]31OC(C)=O)[C@H](C=C(C)C)NC(=O)OC(C)(C)C (some centres not stated)				Active	
COC(=O)O[C@H]1C(=O)[C@@]2(C)C([C@H](OC(=O)c3ccccc3)[C@]3(O)C[C@H](OC(=O)[C@H](O)[C@H](C=C(C)C)NC(=O)OC(C)(C)C)C(C)=C1C3(C)C)[C@]1(OC(C)=O)CO[C@@H]1C[C@@H]2O (some centres not stated)	9.7		0.14		
CC(=O)O[C@@]12CO[C@@H]1C[C@H](O)[C@@]1(C)C(=O)[C@H](OC(=O)C3CC3)C3=C(C)[C@@H](OC(=O)[C@H](O)[C@H](C=C(C)C)NC(=O)OC(C)(C)C)C[C@@](O)([C@@H](OC(=O)c4ccccc4)[C@H]21)C3(C)C	3.9	Active	0.2		
CC(=O)O[C@@]12CO[C@@H]1C[C@H](O)[C@@]1(C)C(=O)[C@H](OC(=O)C3CC3)C3=C(C)[C@@H](OC(=O)[C@H](O)[C@H](CC(C)C)NC(=O)OC(C)(C)C)C[C@@](O)([C@@H](OC(=O)c4ccccc4)C12)C3(C)C (some centres not stated)	7.9		0.51		
CC(=O)O[C@@]12CO[C@@H]1C[C@H](O)[C@@]1(C)C(=O)[C@H](O)C3=C(C)[C@@H](OC(=O)[C@H](O)[C@@H](NC(=O)OC(C)(C)C)c4ccccc4)C[C@@](O)([C@@H](OC(=O)c4ccccc4)[C@H]21)C3(C)C [DOCETAXEL]	723		1		
CC/C=C\C/C=C\C/C=C\C/C=C\C/C=C\C/C=C/CCC(=O)O[C@@H](C(=O)O[C@H]1C[C@@]2(O)[C@@H](OC(=O)c3ccccc3)C3[C@](C)(C(=O)[C@H](OC(=O)N(C)C)C(=C1C)C2(C)C)[C@@H](O)C[C@H]1OC[C@@]31OC(C)=O)[C@H](C=C(C)C)NC(=O)OC(C)(C)C (some centres not stated)					Active
CC/C=C\C/C=C\C/C=C\CCCCCCCC(=O)O[C@@H](C(=O)O[C@H]1C[C@@]2(O)[C@@H](OC(=O)c3ccccc3)C3[C@](C)(C(=O)[C@H](OC(=O)CC)C(=C1C)C2(C)C)[C@@H](O)C[C@H]1OC[C@@]31OC(C)=O)[C@H](C=C(C)C)NC(=O)OC(C)(C)C (some centres not stated)				Active	
CC/C=C\C/C=C\C/C=C\C/C=C\C/C=C\C/C=C/CCC(=O)O[C@@H](C(=O)O[C@H]1C[C@@]2(O)[C@@H](OC(=O)c3ccccc3)C3[C@](C)(C(=O)[C@H](OC(C)=O)C(=C1C)C2(C)C)[C@@H](O)C[C@H]1OC[C@@]31OC(C)=O)[C@@H](NC(=O)c1ccccc1)c1ccccc1 (some centres not stated)		inactive			
CCC(=O)O[C@H]1C(=O)[C@@]2(C)[C@H]([C@H](OC(=O)c3ccccc3)[C@]3(O)C[C@H](OC(=O)[C@H](O)[C@H](CC(C)C)NC(=O)OC(C)(C)C)C(C)=C1C3(C)C)[C@]1(OC(C)=O)CO[C@@H]1C[C@@H]2O	5.1		0.35		
CC(=O)O[C@@]12CO[C@@H]1C[C@H](O)[C@@]1(C)C(=O)[C@H](OC(=O)N(C)C)C3=C(C)[C@@H](OC(=O)[C@H](O)[C@H](C=C(C)C)NC(=O)OC(C)(C)C)C[C@@](O)([C@@H](OC(=O)c4ccccc4)C12)C3(C)C (some centres not stated)	7.4		0.13		
